Format in all cases: cell-based
Test [1] deals with Staphylococcus epidermidis JCM 2414. The test can be described thus: Antibacterial activity, ATP assay (BacTiter-Glo). The note with it: ATP assay concentration: peptides 10, TOB 1.0, CPFX 0.5, OX 0.5, MEPM 0.125 μg/ml. Here is the method:
(§1) That is, using BacTiter-Glo Microbial Cell Viability Assay kit available from PROMEGA, the antibacterial activity of the peptides was evaluated from the viability of bacteria. […] With respect to the strains, Staphylococcus aureus ATCC29213 (S. aureus ATCC29213) as Gram-positive bacteria, or, alternatively, Pseudomonas aeruginosa (P. aeruginosa ATCC27853) as Gram-negative bacteria, was used. The bacteria were cultured in media for 3 to 4 hours, and thereafter absorbances at A600 were measured. Bacterial suspensions were diluted with Mueller-Hinton broth (MHB) according to McFarland #0.5. Each strain was added so as to attain about 0.5−1×10^5 CFU/mL (final concentration) in terms of Escherichia coli. […] A solution to which the peptides were not added was considered as a negative control, and a solution to which tobramycin (TOB) was added was considered as a positive control. […] Relative values were calculated by comparison with the negative control, and these values were regarded as the viability. […] ATP (%) of the antibacterial activity was measured in the same manner as mentioned above, and the “minimum inhibitory concentration (MIC)” was measured as follows. MIC is the lowest concentration of an agent that may inhibit the growth of a bacterium. MIC is used as a parameter for the efficacy of an antibacterial agent, for the strength of bacterial sensitivity, or the like. The bacteria can grow (proliferate) when the concentration is not higher than MIC, and cannot grow when the concentration is higher than MIC. Its measurement is carried out according to a method defined as a standard method by Japanese Society of Chemotherapy or CLINICAL AND LABORATORY […] (CLSI), but, in this Example, its measurement was carried out by a broth microdilution method in accordance with “M100-S17/M7-A7” (Performance Standards for Antimicrobial Susceptibility Testing; Seventeenth Informational Supplement, Vol. 27 No. 1) published by CLSI on January, 2007. That is, sensitivity test of agents was carried out using a microtiter plate or test tubes. With respect to each strain, Escherichia coli: ATCC 25922 (Escherichia coli ATCC 25922), Pseudomonas aeruginosa: ATCC 27853 (Pseudomonas aeruginosa ATCC 27853), Staphylococcus aureus: ATCC29213 (Staphylococcus aureus ATCC29213), Klebsiella pneumoniae: JCM 1662 (Klebsiella pneumoniae JCM 1662), enterobacteria (1): JCM 1232 (Enterobacter cloacae JCM 1232), enterobacteria (2): JCM 1235 (Enterobacter aerogenes JCM 1235), and Staphylococcus epidermidis: JCM 2414 (Staphylococcus epidermidis JCM 2414), were used. […] As the concentrations of the agents in ATP assay, the concentrations as described in the Tables were used.

In test [2] the test system is Escherichia coli ATCC 25922. The test can be described thus: Antibacterial activity, ATP assay (BacTiter-Glo). The note with it: ATP assay concentration: peptides 10, TOB 1.0, CPFX 0.015, OX 0.5, MEPM 0.1 μg/ml. Here is the method: as §1
The test system of test [3] is Enterobacteria (2): Enterobacter aerogenes JCM 1235. The test can be described thus: Antibacterial activity, ATP assay (BacTiter-Glo). The note with it: ATP assay concentration: peptides 10, TOB 4.0, CPFX 1.0, OX 4.0, MEPM 8.0 μg/ml. The procedure:
as §1

For test [4], the system named is Klebsiella pneumoniae JCM 1662. As to the kind of experiment: Antibacterial activity, ATP assay (BacTiter-Glo). Conditions: ATP assay concentration: peptides 10, TOB 4.0, CPFX 1.0, OX 0.5, MEPM 8.0 μg/ml. Here is the method:
as §1

Test [5] has as its system Pseudomonas aeruginosa ATCC27853. The test can be described thus: Antibacterial activity, ATP assay (BacTiter-Glo). Conditions: Table 4-1; ATP assay concentration: peptides 10, TOB 1.0, CPFX 1.0, OX 0.5, MEPM 1.0 μg/ml. Here is the method:
(§2) The antibacterial activity of the polypeptides was measured using an ATP assay method. That is, using BacTiter-Glo Microbial Cell Viability Assay kit available from PROMEGA, the antibacterial activity of the peptides was evaluated from the viability of bacteria. […] With respect to the strains, Staphylococcus aureus ATCC29213 (S. aureus ATCC29213) as Gram-positive bacteria, or, alternatively, Pseudomonas aeruginosa (P. aeruginosa ATCC27853) as Gram-negative bacteria, was used. The bacteria were cultured in media for 3 to 4 hours, and thereafter absorbances at A600 were measured. Bacterial suspensions were diluted with Mueller-Hinton broth (MHB) according to McFarland #0.5. Each strain was added so as to attain about 0.5−1×10^5 CFU/mL (final concentration) in terms of Escherichia coli. […] A solution to which the peptides were not added was considered as a negative control, and a solution to which tobramycin (TOB) was added was considered as a positive control. […] Relative values were calculated by comparison with the negative control, and these values were regarded as the viability. ATP (%) of the antibacterial activity was measured in the same manner as mentioned above, and the “minimum inhibitory concentration (MIC)” was measured as follows. MIC is the lowest concentration of an agent that may inhibit the growth of a bacterium. MIC is used as a parameter for the efficacy of an antibacterial agent, for the strength of bacterial sensitivity, or the like. The bacteria can grow (proliferate) when the concentration is not higher than MIC, and cannot grow when the concentration is higher than MIC. Its measurement is carried out according to a method defined as a standard method by Japanese Society of Chemotherapy or CLINICAL AND LABORATORY […] (CLSI), but, in this Example, its measurement was carried out by a broth microdilution method in accordance with “M100-S17/M7-A7” (Performance Standards for Antimicrobial Susceptibility Testing; Seventeenth Informational Supplement, Vol. 27 No. 1) published by CLSI on January, 2007. That is, sensitivity test of agents was carried out using a microtiter plate or test tubes. With respect to each strain, Escherichia coli: ATCC 25922 (Escherichia coli ATCC 25922), Pseudomonas aeruginosa: ATCC 27853 (Pseudomonas aeruginosa ATCC 27853), Staphylococcus aureus: ATCC29213 (Staphylococcus aureus ATCC29213), Klebsiella pneumoniae: JCM 1662 (Klebsiella pneumoniae JCM 1662), enterobacteria (1): JCM 1232 (Enterobacter cloacae JCM 1232), enterobacteria (2): JCM 1235 (Enterobacter aerogenes JCM 1235), and Staphylococcus epidermidis: JCM 2414 (Staphylococcus epidermidis JCM 2414), were used. […] As the concentrations of the agents in ATP assay, the concentrations as described in the Tables were used.

The test system of test [6] is Staphylococcus aureus ATCC29213. The test can be described thus: Antibacterial activity, ATP assay (BacTiter-Glo). Conditions: 10 μg/mL, ATP assay. Here is the method:
as §2

The test system of test [7] is human vascular endothelial cells and fibroblast cells (co-culture). The test can be described thus: Lumen formation with angiogenesis kit KZ-1000 (section 7). The note with it: day 11. The procedure: Using an angiogenesis kit available from KURABO […] LTD. (Product No.: KZ-1000), lumen formation by the polypeptides was evaluated. Vascular endothelial growth factor A (VEGF-A) as a positive control, and polypeptide-free, unstimulated group as a negative control, were used.
Using a special medium for angiogenesis which was attached to the kit, each polypeptide was prepared such that the concentration thereof was respectively 0.5, 2.5 and 10 μg/mL. To a 24-well plate in which cells were plated (the cells were those obtained by co-culturing human vascular endothelial cells and fibroblast cells at an optimum concentration) which was attached to the kit, the special medium for angiogenesis containing each polypeptide was added, and the cells were cultured at 37° C. under 5% CO2. The medium was replaced with a medium containing the same additive on day 4, day 7 and day 9 of culture. On day 11 from the beginning of the culture, staining was performed using a kit for staining lumina (for CD31 antibody staining) according to the following procedure.
The media were removed, and washing was performed with Dulbecco's phosphate buffered saline (PBS(−)). Thereafter, ice-cooled 70% ethanol was added to the plate, and the cells were fixed. Each well was washed with a blocking solution (Dulbecco's phosphate buffered saline (PBS(−)) containing 1% BSA). To each well, 0.5 mL of the primary antibody for CD31 staining (mouse anti-human CD31 antibody) 4000-fold diluted with the blocking solution was added, and then the plate was incubated for 60 minutes at 37° C. After the completion of the incubation, each well was washed totally 3 times with 1 mL of the blocking solution. Then, 0.5 mL of the secondary antibody solution (goat anti-mouse IgG/alkaline phosphatase conjugate) 500-fold diluted with the blocking solution was added to each well. The plate was incubated for 60 minutes at 37° C., and thereafter each well was washed 3 times with 1 mL of distilled water. During that period, 2 tablets of BCIP/NBT were dissolved into distilled water, and the obtained solution was filtered through a filter having a pore size of […] to prepare a substrate solution. To each well, 0.5 mL of the prepared BCIP/NBT substrate solution was added, and the plate was incubated at 37° C. until the lumina turned to deep purple (typically for 5-10 minutes). After the completion of the incubation, each well was washed 3 times with 1 mL of distilled water. After washing, the washing solution was removed by aspiration, and the plate was left to stand and dry naturally. After drying, photographs of each well were taken under a microscope.
Each of the obtained images was quantified using an angiogenesis quantification software. The area and length of formed lumina observed in each visual field were measured on the basis of the scale of an angiogenesis quantification software available from KURABO […] LTD. (angiogenesis quantification software Ver 1.0), and evaluated on the basis of the ratio of the area or length of polypeptide-containing groups relative to the area or length of the negative control group.

[8] abbreviates: VEGF-A positive control, concentration not given.

Peptide text beside a SMILES is read from it.

For the molecule `O=C(O)c1cn(C2CC2)c2cc(N3CCNCC3)c(F)cc2c1=O` [CPFX, ciprofloxacin, reference compound], in test [1], the “ATP (%) mean, Staphylococcus epidermidis” value was 7.3%. In test [2], the “ATP (%) mean, Escherichia coli” value is 15.4%. In test [3], the “ATP (%) mean, Enterobacteria (2)” value amounted to 3.2%. In addition, the “ATP (%) mean, Klebsiella pneumoniae” value in test [4] came out at 8.2%. Further, the “ATP (%) mean, Pseudomonas aeruginosa” value in test [5] is listed as 2.3%.

Take `CSCC[C@H](N)C(=O)N[C@@H](CCCNC(=N)N)C(=O)N[C@@H](CCCCN)C(=O)N[C@@H](CCCNC(=N)N)C(=O)N[C@@H](CC(C)C)C(=O)N[C@@H](CCCCN)C(=O)N[C@@H](CCCNC(=N)N)C(=O)N[C@@H](CCCCN)C(=O)N[C@@H](CC(C)C)C(=O)N[C@@H](CCCNC(=N)N)C(=O)N[C@@H](CC(C)C)C(=O)N[C@@H](Cc1c[nH]c2ccccc12)C(=O)N[C@@H](Cc1c[nH]cn1)C(=O)N[C@@H](CCCNC(=N)N)C(=O)N[C@@H](CCCCN)C(=O)N[C@@H](CCCNC(=N)N)C(=O)N[C@@H](Cc1ccc(O)cc1)C(=O)N[C@@H](CCCCN)C(N)=O` [SR-6] (H-MRKRLKRKLRLWHRKRYK-NH2; N-terminus assumed): the “antibacterial activity against Staphylococcus aureus compared with AG30-5C” value in test [6] is reported as “higher antibacterial activity against Staphylococcus aureus than AG30-5C”. Also, in test [7] (polypeptide 0.5 μg/mL), the “The Area of Lumina (relative value, negative control as 100)” value is given as 97.3 and the “The Length of Lumina (relative value, negative control as 100)” value is reported as 98.4. Moreover, in test [7] (polypeptide 10 μg/mL), the “The Area of Lumina (relative value, negative control as 100)” value is 98.6 and the “The Length of Lumina (relative value, negative control as 100)” value was 96.6.

In the case of “Vascular endothelial growth factor A [VEGF-A]”, in test [7] (setting [8]), the “The Area of Lumina (relative value, negative control as 100)” value was found to be 189.2 and the “The Length of Lumina (relative value, negative control as 100)” value is 169.8.

For the origin of these results see patent US9376470B2, “Polypeptide having angiogenesis-inducing activity and antibacterial activity, and use thereof for medical purposes” (FunPep Inc., priority 2008, dated 2016).
